Nine compounds from the NIST ThermoML archive (doi:10.1021/je100652b) can be followed below.

What is called mass density is the mass of a sample divided by its volume. For orientation: speed of sound means how fast a sound wave travels through the sample.

Each structure is given as a SMILES string. Numbers after ± are expanded uncertainties.

For the data set the following is noted: 101.33 kPa, Liquid; for speed of sound: Sing-around technique in a fixed-path interferometer.

Turning to `Cc1ccc(C)cc1` [1,4-dimethylbenzene], for the setting “298.15 K”, the mass density amounted to 856.7 ± 0.39 kg/m3 and the speed of sound was 1314 ± 2 m/s. Where the note is “308.15 K”, the mass density was found to be 847.88 ± 0.4 kg/m3 and the speed of sound is on record as 1272 ± 2 m/s.
The corresponding values for `c1ccccc1` [benzene] are 873.58 ± 0.36 kg/m3, 1300 ± 2 m/s, 862.96 ± 0.38 kg/m3 and 1260 ± 2 m/s.
For `CCCCO` [butan-1-ol] the same measures were 805.91 ± 0.56 kg/m3, 1244 ± 2 m/s, 798.21 ± 0.57 kg/m3 and 1212 ± 2 m/s.
For `C1CCCCC1` [cyclohexane] the same measures were 773.86 ± 0.51 kg/m3, 1254 ± 2 m/s, 764.46 ± 0.53 kg/m3 and 1212 ± 2 m/s.
With `CCc1ccccc1` [ethylbenzene], under “298.15 K”, the mass density is 862.63 ± 0.38 kg/m3 and the speed of sound turned out to be 1319 ± 2 m/s. Moreover, where the note is “308.15 K”, the mass density turned out to be 853.89 ± 0.39 kg/m3 and the speed of sound is reported as 1276 ± 2 m/s.
For `CCCCCCCO` [heptan-1-ol] the same measures were 818.91 ± 0.55 kg/m3, 1330 ± 2 m/s, 811.94 ± 0.55 kg/m3 and 1292 ± 2 m/s.
For `C=C(C)C(=O)OC` [methyl methacrylate] the same measures were 937.6 ± 0.28 kg/m3, 1182 ± 2 m/s, 925.7 ± 0.3 kg/m3 and 1152 ± 2 m/s.
For `CCCCCO` [pentan-1-ol] the same measures were 810.76 ± 0.56 kg/m3, 1274 ± 2 m/s, 803.41 ± 0.57 kg/m3 and 1240 ± 2 m/s.
Take `Cc1ccccc1` [toluene]: under “298.15 K”, the mass density is reported as 862.21 ± 0.38 kg/m3 and the speed of sound is recorded as 1304 ± 2 m/s. Also, for the setting “308.15 K”, the mass density was 852.86 ± 0.39 kg/m3 and the speed of sound is reported as 1262 ± 2 m/s.
